Data published in US20260022143A1, “Cyclic Peptide Inhibitors of IL-23” (JANSSEN PHARMACEUTICA NV, priority 2022, published 2026).

Test: Exposed Polar Surface Area (EPSA)
Type: physicochemical
Details: SFC on Chirex 3014 column; sample 1 mM DMSO stock; read-out: EPSA
Text: Exposed Polar Surface Area (EPSA) is an experimental descriptor of molecular polarity obtained from chromatographic retention in supercritical fluid chromatography (SFC).
The stationary phase (Chirex 3014(S)-valine and (R)-1-(alpha-naphthyl) ethylamine) was selected for its balance of lipophilic and polar attributes and its capacity to separate compounds with wide polarity differences. The mobile phase consists of methanol (+Ammonium formate) and CO2. Polar compounds are retained stronger under these conditions and a low-slope gradient of methanol achieves elution based on increasing polarity of the mobile phase. Results are normalized using calibration standards generating a linear relationship between retention times and EPSA values. The unit of EPSA is Å^2.
Along with the measurement of compounds of interest, a series of 8 calibration standards (see Materials) are analyzed generating a linear relationship between retention times and EPSA value. The 8 compounds used as calibration standard have their own EPSA value defined by G. Goetz based on the comparison with TPSA (see G. Goetz, L. Philippe and M. Shapiro, “EPSA: A novel supercritical fluid chromatography technique enabling the design of permeable cyclic peptides,” ACS Med. Chem. Lett., vol. 5, pp. 1167-1172, 2014 for more information). The slope from the linear relationship between EPSA values of these eight compounds and their retention times is used to determine the EPSA value of each compound of interest that's measured under the same condition using the equation as below: […]
The mixture of calibrations standard is reinjected every 20 compounds to validate the stability of the retention time.
The mobile phase modifier consists of ammonium formate LC_MS grade (>99%) (CAS number 540-69-2) diluted to 20 mM in HPLC grade Methanol (MeOH, CAS number 67-56-1) and liquid C02 SFC grade (CAS number 124-38-9).
Antipyrine (CAS number: 60-80-0) Chlorpromazine hydrochloride (CAS number: 69-09-0), desipramine hydrochloride (CAS number: […]), pindolol (CAS Number: 13523-86-9), diclofenac (CAS number: 15307-79-6)), m-nitro benzoic acid (CAS number: 121-92-6), bumetanide (CAS number: 28395-03-1), furosemide (CAS number: 54-31-9) were purchased from Sigma Aldrich (Steihneim, Germany).
All analyses were performed on a ultra performance convergence chromatography (UPC™) apparatus (Waters, Milford, MA, USA) equipped with a sample manager, a binary solvent delivery pump (BSM), a column manager, a convergence manager (automated back pressure regulator), a photo diode array detector (DAD) with a high pressure flow cell, and a mass detector simple quadrupole QDa. After the UV detector, the effluent of the SFC was mixed with an eluent consist of mixture MeOH/water (+0.3% Ammonia) 95/5 delivered by a make up pump with a flow rate of 0.4 mL/min and then split to the QDa using a splitter. The instrument was controlled, and data were processed with Masslynx 4.1.
The Analyses were performed using a 4.6×50 mm Chirex 3014(S)-valine and (R)-1-(alpha- naphthyl) ethylamine column (Phenomenex, Le Pecq, France) with 5 um particle and 100A pore size. The flow rate was 4 mL/min with the outlet pressure set to 14 MPa. The injection volume was 2 μL. the mobile phase composition was varied from 5% to 60% modifier at 20%/ min in a linear gradient, holding at 60% for 1.45 min and reverting to the original 5% until the end of the run. Data are acquired during 5 min. An equilibration time of 1 min is applied between 2 injections resulting in an injection every 6 min. each sample is analyzed in duplicate, resulting in a sample to sample turnaround time of 12 min.
The column temperature was set to 35° C. The mass detector was used in full scan from 100 to 800 for small molecules and from 500 to 1200 for peptides.
Each sample is delivered by compound logistics from DMSO stock solution without dilution. The concentration is 1 mM and the volume is 60 μL.

EPSA | SMILES
170 A^2 | CC(=O)NCCCC[C@@H]1NC(=O)[C@H](Cc2c[nH]c3c(C)cccc23)NC(=O)[C@H]([C@@H](C)O)NC(=O)[C@H](CC(N)=O)NC(=O)[C@@H](NC(C)=O)C(C)(C)SSC(C)(C)[C@@H](C(=O)N[C@@H](Cc2ccc(OCCN)cc2)C(=O)N[C@@H](Cc2ccc3ccccc3c2)C(=O)N[C@@](C)(CCCCN)C(=O)N[C@H](CCCCNC(C)=O)C(=O)N[C@@H](CC(N)=O)C(=O)N[C@H](CC(C)C)C(=O)N(C)[C@H](Cc2ccc(O)cc2)C(N)=O)NC1=O (racemic) [compound 6, MeCO-Pen(3)-N-T-7MeW-K(Ac)-Pen(3)-AEF-2Nal-aMeK-k(Ac)-N-dL-NMeDTyr-CONH2]
171 A^2 | CC(=O)NCCCC[C@@H]1NC(=O)[C@H](Cc2c[nH]c3c(C)cccc23)NC(=O)[C@H]([C@@H](C)O)NC(=O)[C@H](CC(N)=O)NC(=O)[C@@H](NC(=O)C(COCCOCC[N+](C)(C)C)NC(C)=O)C(C)(C)SSC(C)(C)[C@@H](C(=O)N[C@@H](Cc2ccc(OCCCCC[N+](C)(C)C)cc2)C(=O)N[C@@H](Cc2ccc3ccccc3c2)C(=O)NC2(C(=O)N[C@@H](CCC(=O)O)C(=O)N[C@@H](CC(N)=O)C(=O)N[C@@H](Cc3cccnc3)C(=O)N(C)CC(N)=O)CCOCC2)NC1=O (mixture of isomers) [compound 555, MeCO-APEG2Ser(RS)-Pen(3)-N-T-7MeW-K(Ac)-Pen(3)-TMAPF-2Nal-THP-E-N-3Pya-Sar-CONH2]
145 A^2 | CC(=O)N(C)CCCC[C@H](NC(=O)C1(NC(=O)[C@H](Cc2ccc3ccccc3c2)NC(=O)[C@H](Cc2ccc(OCCCCC[N+](C)(C)C)cc2)NC(=O)[C@H]2NC(=O)[C@H](COCCOCC[N+](C)(C)C)NC(=O)[C@H](Cc3c[nH]c4c(C)cccc34)NC(=O)[C@H]([C@@H](C)O)NC(=O)[C@H](CC(=O)N(C)C)NC(=O)[C@@H](NC(=O)CCOCCOCC[N+](C)(C)C)C(C)(C)SSC2(C)C)CCOCC1)C(=O)N[C@@H](CC(N)=O)C(=O)N[C@@H](Cc1cccnc1)C(=O)N(C)CC(=O)N(C)C (relative stereo) [compound 247, cPEG3aCO-Pen(3)-N(N(Me)2)-T-7MeW-APEG2Ser(S*)-Pen(3)-TMAPF-2Nal-THP-K(NMeAc)-N-3Pya-Sar-CON(Me)2]
142 A^2 | CC(=O)N[C@@H]1C(=O)N[C@@H](CC(=O)N(C)C)C(=O)N[C@@H]([C@@H](C)O)C(=O)N[C@@H](Cc2c[nH]c3c(C)cccc23)C(=O)N[C@@H](COCCOCC[N+](C)(C)C)C(=O)N[C@H](C(=O)N[C@@H](Cc2ccc(OCCOCCOCC[N+](C)(C)C)cc2)C(=O)N[C@@H](Cc2ccc3ccccc3c2)C(=O)NC2(C(=O)N[C@@H](COCCOCC[N+](C)(C)C)C(=O)N[C@@H](CC(N)=O)C(=O)N[C@@H](Cc3cccnc3)C(=O)N(C)CC(=O)N(C)C)CCOCC2)C(C)(C)SSC1(C)C (relative stereo) [compound 256, MeCO-Pen(3)-N(N(Me)2)-T-7MeW-APEG2Ser(S*)-Pen(3)-APEG3F-2Nal-THP-APEG2Ser(S*)-N-3Pya-Sar-CON(Me)2]
157 A^2 | CC(=O)N(C)CCCC[C@@H]1NC(=O)[C@H](Cc2c[nH]c3c(C)cccc23)NC(=O)[C@H]([C@@H](C)O)NC(=O)[C@H](CC(=O)N(C)C)NC(=O)[C@@H](NC(=O)CCOCCOCC[N+](C)(C)C)C(C)(C)SSC(C)(C)[C@@H](C(=O)N[C@@H](Cc2ccc(OCCN(CCOCC[N+](C)(C)C)CCOCC[N+](C)(C)C)cc2)C(=O)N[C@@H](Cc2ccc3ccccc3c2)C(=O)NC2(C(=O)N[C@@H](CCCCN(C)C(C)=O)C(=O)N[C@@H](CC(N)=O)C(=O)N[C@@H](Cc3cccnc3)C(=O)N(C)CC(=O)N(C)C)CCOCC2)NC1=O (relative stereo) [compound 266, cPEG3aCO-Pen(3)-N(N(Me)2)-T-7MeW-K(NMeAc)-Pen(3)-AEF(BisPEG2a)(S*)-2Nal-THP-K(NMeAc)-N-3Pya-Sar-CON(Me)2]
162 A^2 | CCCCCCCCCCCC(=O)N[C@@H](CCC(=O)NCCOCCOCC(=O)NCCOCCOCC(=O)NC(COCCOCC[N+](C)(C)C)C(=O)N[C@@H]1C(=O)N[C@@H](CC(=O)N(C)C)C(=O)N[C@@H]([C@@H](C)O)C(=O)N[C@@H](Cc2c[nH]c3c(C)cccc23)C(=O)N[C@@H](CCCCN(C)C(C)=O)C(=O)N[C@H](C(=O)N[C@@H](Cc2ccc(OCCOCCOCC[N+](C)(C)C)cc2)C(=O)N[C@@H](Cc2ccc3ccccc3c2)C(=O)NC2(C(=O)N[C@@H](CCCCN(C)C(C)=O)C(=O)N[C@@H](CC(N)=O)C(=O)N[C@@H](Cc3cccnc3)C(=O)N(C)CC(=O)N(C)C)CCOCC2)C(C)(C)SSC1(C)C)C(=O)O (relative stereo) [compound 366, C12gEPEG2PEG2CO-APEG2Ser(S*)-Pen(3)-N(N(Me)2)-T-7MeW-K(NMeAc)-Pen(3)-APEG3F-2Nal-THP-K(NMeAc)-N-3Pya-Sar-CON(Me)2]
162 A^2 | CCCCCCCCCCCCCC(=O)N[C@@H](CCC(=O)NCCOCCOCC(=O)NCCOCCOCC(=O)N[C@@H](COCCOCC[N+](C)(C)C)C(=O)N[C@@H]1C(=O)N[C@@H](CC(=O)N(C)C)C(=O)N[C@@H]([C@@H](C)O)C(=O)N[C@@H](Cc2c[nH]c3c(C)cccc23)C(=O)N[C@@H](CCCCN(C)C(C)=O)C(=O)N[C@H](C(=O)N[C@@H](Cc2ccc(OCCOCCOCC[N+](C)(C)C)cc2)C(=O)N[C@@H](Cc2ccc3ccccc3c2)C(=O)NC2(C(=O)N[C@@H](CCCCN(C)C(C)=O)C(=O)N[C@@H](CC(N)=O)C(=O)N[C@@H](Cc3cccnc3)C(=O)N(C)CC(=O)N(C)C)CCOCC2)C(C)(C)SSC1(C)C)C(=O)O (relative stereo) [compound 367, C14gEPEG2PEG2CO-APEG2Ser(S*)-Pen(3)-N(N(Me)2)-T-7MeW-K(NMeAc)-Pen(3)-APEG3F-2Nal-THP-K(NMeAc)-N-3Pya-Sar-CON(Me)2]
166 A^2 | CCCCCCCCCCCC(=O)N[C@@H](CCC(=O)NCCOCCOCC(=O)NCCOCCOCC(=O)NCCCC[C@@H]1NC(=O)[C@H](Cc2c[nH]c3c(C)cccc23)NC(=O)[C@H]([C@@H](C)O)NC(=O)[C@H](CC(=O)N(C)C)NC(=O)[C@@H](NC(=O)C(COCCOCC[N+](C)(C)C)NC(=O)COCCOCCNC(=O)COCCOCCNC(=O)CC[C@H](NC(=O)CCCCCCCCCCC)C(=O)O)C(C)(C)SSC(C)(C)[C@@H](C(=O)N[C@@H](Cc2ccc(OCCOCCOCC[N+](C)(C)C)cc2)C(=O)N[C@@H](Cc2ccc3ccccc3c2)C(=O)NC2(C(=O)N[C@@H](CCCCN(C)C(C)=O)C(=O)N[C@@H](CC(N)=O)C(=O)N[C@@H](Cc3cccnc3)C(=O)N(C)CC(=O)N(C)C)CCOCC2)NC1=O)C(=O)O (relative stereo) [compound 368, C12gEPEG2PEG2CO-APEG2Ser(S*)-Pen(3)-N(N(Me)2)-T-7MeW-K(PEG2PEG2gEC12)-Pen(3)-APEG3F-2Nal-THP-K(NMeAc)-N-3Pya-Sar-CON(Me)2]
184 A^2 | CCCCCCCCCCCCCC(=O)N[C@@H](CCC(=O)NCCOCCOCC(=O)NCCOCCOCC(=O)NCCCC[C@@H]1NC(=O)[C@H](Cc2c[nH]c3c(C)cccc23)NC(=O)[C@H]([C@@H](C)O)NC(=O)[C@H](CC(=O)N(C)C)NC(=O)[C@@H](NC(=O)[C@H](COCCOCC[N+](C)(C)C)NC(=O)COCCOCCNC(=O)COCCOCCNC(=O)CC[C@H](NC(=O)CCCCCCCCCCCCC)C(=O)O)C(C)(C)SSC(C)(C)[C@@H](C(=O)N[C@@H](Cc2ccc(OCCOCCOCC[N+](C)(C)C)cc2)C(=O)N[C@@H](Cc2ccc3ccccc3c2)C(=O)NC2(C(=O)N[C@@H](CCCCN(C)C(C)=O)C(=O)N[C@@H](CC(N)=O)C(=O)N[C@@H](Cc3cccnc3)C(=O)N(C)CC(=O)N(C)C)CCOCC2)NC1=O)C(=O)O (relative stereo) [compound 369, C14gEPEG2PEG2CO-APEG2Ser(S*)-Pen(3)-N(N(Me)2)-T-7MeW-K(PEG2PEG2gEC14)-Pen(3)-APEG3F-2Nal-THP-K(NMeAc)-N-3Pya-Sar-CON(Me)2]
